Measured values as given in article PMC9115111, “Metalloprotease Gp63-Targeting Novel Glycoside Exhibits Potential Antileishmanial Activity” (Frontiers in Cellular and Infection Microbiology, 2022).

Tested on: L. donovani promastigotes (AG83 strain)
Assay: LDH cytotoxicity assay on promastigotes, AG83 strain
Format: cell-based, Leishmania donovani
Conditions: Leishmania donovani; Table 1; activity against promastigotes
Procedure: Promastigote forms of L. donovani (MHOM/IN/1983/AG83) were cultured at 26°C in M199 (GIBCO, India), pH 7.4, supplemented with 10% (v/v) inactivated fetal bovine serum (FBS, GIBCO, India) and 0.02 mg/ml gentamycin (Life Technologies, USA). The clinical isolate of PKDL, BS12, was obtained as a gift from Prof. Mitali Chatterjee [Department of Pharmacology, Institute of Postgraduate Medical Education and Research (IPGMER), Kolkata, India]. BS12 was routinely cultured at 22°C in M199 (GIBCO, India) with 100 U/ml penicillin-streptomycin (Gibco, Invitrogen, Thermo Fisher Scientific, NY, USA), 8 μM hemin (4 mM stock made in 50% triethanolamine) (Sigma, USA), 25 mM 4-(2-hydroxyethyl)-1-piperazineethanesulfonic acid (HEPES), supplemented with 10% heat-inactivated FBS (GIBCO, India). Cultures were maintained between 10^6 and 10^7 cells/ml for continuous exponential growth. In addition, 1 × 10^6 cells/ml parasite count was constantly maintained for all the experiments ([Ramu et al., 2017]).
All the compounds were dissolved in dimethyl sulfoxide (DMSO) (Sigma-Aldrich) for 1 mM stock solution and were screened against promastigotes at a concentration of 5 µM. For Glycosides (Gly) 2, 6, and 8, a range of concentrations starting from 100 nM to 100 µM were screened against promastigote forms of parasite and mammalian cells. Parasites (AG83 and PKDL strain) treated with amphotericin B (3 µg/ml) (Sigma-Aldrich) were maintained as the positive control.
AG83 strain of L. donovani were exposed to various Gly compound concentrations (100 nM–100 µM) in a 96-well microtiter plate (100 µl/well volume) and were incubated for 72 h at 26°C. Finally, lactate dehydrogenase (LDH) cytotoxic assay was performed as per standard protocol (CytoTox 96 Non-Radioactive Cytotoxicity Assay-Promega, USA). The percent cytotoxicity of test compounds was calculated by normalizing with amphotericin B as 100%. Further percentage growth inhibition was calculated using the formula:
% Growth Inhibition = Gly treated LDH activity- Spontaneous LDH activity
/Maximum LDH activity- Spontaneous LDH activity * 100
As per the formula, the spontaneous LDH Activity = activity of the untreated cells and the maximum LDH activity = activity of the amphotericin B-treated cells. IC50 value for Gly2, 6, and 8 treated was generated for AG83 and PKDL strain of L. donovani using sigmoidal dose–response model with nonlinear regression tool ([Ramu et al., 2017]).

## CC(C)CCOC1O[C@H](CO)[C@@H](O)[C@H](O)[C@H]1O (stereo partly shown) [Gly2]
  IC50: 1130 nM
